According to patent publication US20060257935A1, “Hematopoietic factor production promoter” (Ajinomoto Co., Inc., priority 2005, published 2006):

Experiments:
[1] = system: activin (rat Inhibin betaA); assay: Activin mRNA quantification by quantitative PCR in bone marrow cells isolated from renal failure rat; format: cell-based; conditions: 2 hours after addition of arginine, 400 μM or 600 μM vs 100 μM
Text: (§1) A renal failure rat (a rat from which ⅚ of kidney was removed) was produced as follows. A male Wistar rat at 8 weeks of age (Charles River Japan, Inc.) was subjected to the total extirpation of the right kidney and the ⅔ extirpation of the renal cortex of the left kidney under anesthesia with Nembutal and was sutured. After the surgery, the rat was housed under normal housing condition (CRF-1 diet, Charles River Japan, Inc.). Six weeks after the surgery the renal failure rat was killed by diethyl ether, then both femurs were excised and bone marrow cells were isolated. The isolated bone marrow cells were suspended in an IMDM medium with blood amino acid concentration containing 10% FCS. […]
(§2) The quantification of mRNA of each of the hematopoietic factors was determined by the quantitative PCR method mentioned below. Based on the sequences of activin (rat Inhibin betaA), SCF and IGF-1 registered in NCBI (GenBank accession Nos. M37482, NM021843, and NM178886, respectively in the order), oligonucleotide primers to be used for the quantitative PCR method were synthesized. […]
(§3) The quantitative PCR method was in accordance with the method described in SYBRGreen PCR kit (TOYOBO., Ltd.). […] After the quantitative PCR, the presence or absence and size of an amplified product were confirmed by agarose gel electrophoresis. […]

SCF = SCF mRNA quantification by quantitative PCR in bone marrow cells isolated from renal failure rat; format: cell-based; conditions: 2 hours after addition of arginine, 400 μM or 600 μM vs 100 μM
Text: as §1, §2, §3

IGF-1 = IGF-1 mRNA quantification by quantitative PCR in bone marrow cells isolated from renal failure rat; format: cell-based; conditions: 2 hours after addition of arginine, 400 μM or 600 μM vs 100 μM
Text: as §1, §2, §3

[2] = system: patients with renal anemia; conditions: cited from earlier work
[3] = system: porcine primary hepatocyte; conditions: added to medium for porcine primary hepatocyte culture at a high concentration; cited from earlier work
[4] = Blood arginine concentration after oral administration to rats; format: in vivo, rat; conditions: oral single-dose administration of arginine at 1.2 g/kg
MC3T3-E1 cells = conditions: cited from earlier work
normal rats = conditions: repeated administration; cited from earlier work
[5] = system: mouse bone marrow cells (CFU-E); assay: In vitro mouse CFU-E colony assay (methylcellulose semi-solid medium); format: cell-based
Procedure: An in vitro mouse CFU-E colony assay was conducted in accordance with the following method. After a female BDF-1 mouse at 10 weeks of age (Charles River Japan, Inc.) was killed by the cervical dislocation method, bone marrow cells were isolated from the femur and suspended in an IMDM medium (Invitrogen) containing 10% FCS (JRH Bioscience Inc). The bone marrow cells were centrifuged at 1500 rpm for 10 minutes at 4° C. and the precipitated bone marrow cells were resuspended in an amino acid-free IMDM medium and the number of cells was measured. […] At 28 hours after the culture was carried out under the condition of 37° C. and 5% CO2, the number of CFU-E colonies was measured using an inverted microscope. […] The data is expressed as a mean value±SEM. […]

With N=C(N)NCCC[C@H](N)C(=O)O [arginine] the “production of activin (relative mRNA level per total RNA)” value [1] was “promotes the production”, the “production of SCF (relative mRNA level per total RNA)” value (SCF) was “promotes the production” and the “production of IGF-1 (relative mRNA level per total RNA)” value (IGF-1) was “promotes the production”. For the same molecule, the “condition of anemia (number of red blood cells)” value [2] was “improved”, the “gene expression of IGF-1” value [3] was “increases” and the blood arginine concentration [4] was “about 600 μM”. For the same molecule, the “gene expression of IGF-1” value (MC3T3-E1 cells; MC3T3-E1 cells, arginine added at a higher concentration) was “increases”, the “secretion amount of IGF-1” value (MC3T3-E1 cells; MC3T3-E1 osteoblast-like cell line) was “increases” and the “amount of hemoglobin and red blood cells” value (normal rats) was “increased”. The “number of CFU-E colonies” value ([5]; 600 μM arginine added to isolated mouse bone marrow cells, compared with 170 μM) was “significantly increases”.

For C[C@@H](O)[C@H](N)C(=O)O [threonine], the “gene expression of IGF-1” value [3] is given as “increases”.

For O=C(O)[C@@H]1CCCN1 [proline], the “gene expression of IGF-1” value [3] is listed as “increases”.

In the case of N[C@@H](Cc1c[nH]c2ccccc12)C(=O)O [triptophan], the “gene expression of IGF-1” value [3] is given as “increases”.

B1: follistatin: follistatin (FSN, anti-activin, R&D Co.), inhibitor for activin (protein, UniProt P19883 30-344, looked up)
Follistatin: GNCWLRQAKNGRCQVLYKTELSKEECCSTGRLSTSWTEEDVNDNTLFKWMIFNGGAPNCIPCKETCENVDCGPGKKCRMNKKNKPRCVCAPDCSNITWKGPVCGLDGKTYRNECALLKARCKEQPELEVQYQGRCKKTCRDVFCPGSSTCVVDQTNNAYCVTCNRICPEPASSEQYLCGNDGVTYSSACHLRKATCLLGRSIGLAYEGKCIKAKSCEDIQCTGGKKCLWDFKVGRGRCSLCDELCPDSKSDEPVCASDNATYASECAMKEAACSSGVLLEVKHSGSCNSISEDTEEEEEDEDQDYSFPISSILEW
In the case of B1, the “inhibition of CFU-E-colony stimulating activity of arginine” value ([5]; follistatin 100 ng/ml, 600 μM arginine, 28 hours culture) is reported as “inhibited”.
